Among the data in US3992371A, “Penicillins substituted with heterocyclic and substituted phenyl groups” (Sumitomo Chemical Company, Limited, priority 1973, dated 1976) are MIC values, retold here.

Assay in all cases: Minimal inhibitory concentration, agar dilution method
Common to all, as to format: cell-based
(In general: In agar dilution the substance is mixed into plates at graded concentrations.)

The subject of assay [1] is Escherichia coli NIHJ. From the text: (§1) When determined according to the agar dilution method, the penicillins (I) afford the minimal inhibitory concentrations against test microorganisms as shown in Table 2.
Assay [2] deals with Klebsiella pneumoniae PCI602.
Source text: as §1

For assay [3], the system named is Pseudomonas aeruginosa 104.
Source text: as §1

Assay [4] relates to Staphylococcus aureus 209P.
Source text: as §1

Assay [5] concerns Proteus miravilis GN2425.
Assay [6] has as its system Proteus vulgaris HV19.

By MIC is commonly meant the lowest concentration that inhibits growth of the organism. A low value points to inhibition by little substance.

The structures appear in SMILES notation. In brackets after ≈: the same amount, converted by molar mass.

As for `COc1ccc2c(O)c(C(=O)NC(C(=O)N[C@@H]3C(=O)N4[C@@H]3SC(C)(C)[C@@H]4C(=O)O)c3cccc(N)c3)cnc2c1` (stereo partly drawn) [Example 20], the MIC in assay [1] is 3.13 µg/mL (≈ 5.53 µM); in assay [2], 6.25 µg/mL (≈ 11.1 µM); in assay [3] it was 3.13 µg/mL (≈ 5.53 µM); in assay [4] it was 0.78 µg/mL (≈ 1.38 µM); in assay [5], 3.13 µg/mL (≈ 5.53 µM); in assay [6], 0.1 µg/mL (≈ 0.177 µM).
For `Cc1ccc2ncc(C(=O)NC(C(=O)N[C@@H]3C(=O)N4[C@@H]3SC(C)(C)[C@@H]4C(=O)O)c3ccc(N)cc3)c(O)c2n1` (stereo partly drawn) [Example 21], the MIC in assay [1] was found to be 0.78 µg/mL (≈ 1.42 µM); in assay [2] it was 3.13 µg/mL (≈ 5.68 µM); in assay [3] it was 0.78 µg/mL (≈ 1.42 µM); in assay [4], 1.56 µg/mL (≈ 2.83 µM); in assay [5], 1.56 µg/mL (≈ 2.83 µM); in assay [6], 0.025 µg/mL (≈ 0.0454 µM).
As to `CN(C)c1ccc2ncc(C(=O)NC(C(=O)N[C@@H]3C(=O)N4[C@@H]3SC(C)(C)[C@@H]4C(=O)O)c3cccc(N)c3)c(O)c2n1` (stereo partly drawn) [Example 22], the MIC in assay [1] stood at 0.78 µg/mL (≈ 1.35 µM); in assay [2], 3.13 µg/mL (≈ 5.4 µM); in assay [3], 0.78 µg/mL (≈ 1.35 µM); in assay [4], 1.56 µg/mL (≈ 2.69 µM); in assay [5], 0.78 µg/mL (≈ 1.35 µM); in assay [6] it was 0.025 µg/mL (≈ 0.0431 µM).
`COc1ccc2ncc(C(=O)NC(C(=O)N[C@@H]3C(=O)N4[C@@H]3SC(C)(C)[C@@H]4C(=O)O)c3cccc(N)c3)c(O)c2n1` (stereo partly drawn) [Example 23]: the MIC in assay [1] stood at 0.78 µg/mL (≈ 1.38 µM); in assay [2], 6.25 µg/mL (≈ 11 µM); in assay [3], 1.56 µg/mL (≈ 2.75 µM); in assay [4], 1.56 µg/mL (≈ 2.75 µM); in assay [5], 1.56 µg/mL (≈ 2.75 µM); in assay [6], 0.05 µg/mL (≈ 0.0882 µM).
`CSc1ccc2ncc(C(=O)NC(C(=O)N[C@@H]3C(=O)N4[C@@H]3SC(C)(C)[C@@H]4C(=O)O)c3ccc(N)cc3)c(O)c2n1` (stereo partly drawn) [Example 24]: the MIC in assay [1] was determined as 0.78 µg/mL (≈ 1.34 µM); in assay [2] it was 6.25 µg/mL (≈ 10.7 µM); in assay [3], 1.56 µg/mL (≈ 2.68 µM); in assay [4], 1.56 µg/mL (≈ 2.68 µM); in assay [5], 0.78 µg/mL (≈ 1.34 µM); in assay [6] it was 0.025 µg/mL (≈ 0.0429 µM).
For `CC1(C)S[C@@H]2[C@H](NC(=O)C(NC(=O)c3cnc4cc([N+](=O)[O-])ccc4c3O)c3cccc(N)c3)C(=O)N2[C@H]1C(=O)O` (stereo partly drawn) [Example 25], the MIC in assay [1] was found to be 3.13 µg/mL (≈ 5.39 µM); in assay [2] it was 12.5 µg/mL (≈ 21.5 µM); in assay [3] it was 3.13 µg/mL (≈ 5.39 µM); in assay [4] it was 0.78 µg/mL (≈ 1.34 µM); in assay [5] it was 3.13 µg/mL (≈ 5.39 µM); in assay [6], 0.2 µg/mL (≈ 0.344 µM).
Take `CC(=O)Nc1ccc2ncc(C(=O)NC(C(=O)N[C@@H]3C(=O)N4[C@@H]3SC(C)(C)[C@@H]4C(=O)O)c3cccc(N)c3)c(O)c2n1` (stereo partly drawn) [Example 26]: the MIC came to 0.78 µg/mL (≈ 1.31 µM) in assay [1]; 6.25 µg/mL (≈ 10.5 µM) in assay [2]; 0.78 µg/mL (≈ 1.31 µM) in assay [3]; 1.56 µg/mL (≈ 2.63 µM) in assay [4]; 0.78 µg/mL (≈ 1.31 µM) in assay [5]; 0.025 µg/mL (≈ 0.0421 µM) in assay [6].
Regarding `CC1(C)S[C@@H]2[C@H](NC(=O)C(NC(=O)c3cnc4cc(N)ccc4c3O)c3cccc(N)c3)C(=O)N2[C@H]1C(=O)O` (stereo partly drawn) [Example 27], the MIC in assay [1] is 3.13 µg/mL (≈ 5.68 µM); in assay [2] it was 12.5 µg/mL (≈ 22.7 µM); in assay [3] it was 3.13 µg/mL (≈ 5.68 µM); in assay [4], 0.78 µg/mL (≈ 1.42 µM); in assay [5], 3.13 µg/mL (≈ 5.68 µM); in assay [6], 0.39 µg/mL (≈ 0.708 µM).
`CC1(C)SC2C(NC(=O)C(NC(=O)c3cnc4ccc(N)nc4c3O)c3cccc(N)c3)C(=O)N2C1C(=O)O` (stereo not drawn) [Example 29]: the MIC turned out to be 0.78 µg/mL (≈ 1.41 µM) in assay [1]; 6.25 µg/mL (≈ 11.3 µM) in assay [2]; 0.78 µg/mL (≈ 1.41 µM) in assay [3]; 1.56 µg/mL (≈ 2.83 µM) in assay [4]; 0.78 µg/mL (≈ 1.41 µM) in assay [5]; 0.025 µg/mL (≈ 0.0453 µM) in assay [6].
Turning to `CC1(C)S[C@@H]2[C@H](NC(=O)C(NC(=O)c3cnc4ccc(O)nc4c3O)c3cccc(N)c3)C(=O)N2[C@H]1C(=O)O` (stereo partly drawn) [Example 30], the MIC in assay [1] was 0.78 µg/mL (≈ 1.41 µM); in assay [2] it was 6.25 µg/mL (≈ 11.3 µM); in assay [3] it was 1.56 µg/mL (≈ 2.82 µM); in assay [4], 1.56 µg/mL (≈ 2.82 µM); in assay [5], 1.56 µg/mL (≈ 2.82 µM); in assay [6], 0.05 µg/mL (≈ 0.0905 µM).
Regarding `CC1(C)S[C@@H]2[C@H](NC(=O)C(NC(=O)c3cc4ccccc4nc3O)c3cccc(N)c3)C(=O)N2[C@H]1C(=O)O` (stereo partly drawn) [Example 31], the MIC stood at 3.13 µg/mL (≈ 5.84 µM) in assay [1]; 12.5 µg/mL (≈ 23.3 µM) in assay [2]; 3.13 µg/mL (≈ 5.84 µM) in assay [3]; 0.78 µg/mL (≈ 1.46 µM) in assay [4]; 3.13 µg/mL (≈ 5.84 µM) in assay [5]; 0.39 µg/mL (≈ 0.728 µM) in assay [6].
Take `COc1nc(OC)c2c(O)c(C(=O)NC(C(=O)NC3C(=O)N4C3SC(C)(C)C4C(=O)O)c3ccc(N)cc3)cnc2n1` (stereo not drawn) [Example 32]: the minimum inhibitory concentration (MIC) in assay [1] is 3.13 µg/mL (≈ 5.24 µM); in assay [2], 12.5 µg/mL (≈ 20.9 µM); in assay [3], 3.13 µg/mL (≈ 5.24 µM); in assay [4], 1.56 µg/mL (≈ 2.61 µM); in assay [5], 3.13 µg/mL (≈ 5.24 µM); in assay [6], 0.05 µg/mL (≈ 0.0837 µM).
In the case of `CC1(C)SC2C(NC(=O)C(NC(=O)c3cnc4cncnc4c3O)c3cccc(N)c3)C(=O)N2C1C(=O)O` (stereo not drawn) [Example 33], the MIC in assay [1] is 0.78 µg/mL (≈ 1.45 µM); in assay [2], 6.25 µg/mL (≈ 11.6 µM); in assay [3] it was 0.78 µg/mL (≈ 1.45 µM); in assay [4] it was 1.56 µg/mL (≈ 2.9 µM); in assay [5], 0.78 µg/mL (≈ 1.45 µM); in assay [6] it was 0.025 µg/mL (≈ 0.0465 µM).
As for `COc1ccc(C(NC(=O)c2cnc3cn[nH]c3c2O)C(=O)NC2C(=O)N3C2SC(C)(C)C3C(=O)O)cc1` (stereo not drawn) [Example 34], the MIC in assay [1] amounted to 3.13 µg/mL (≈ 5.79 µM); in assay [2], 12.5 µg/mL (≈ 23.1 µM); in assay [3], 3.13 µg/mL (≈ 5.79 µM); in assay [4], 0.78 µg/mL (≈ 1.44 µM); in assay [5], 6.25 µg/mL (≈ 11.6 µM); in assay [6] it was 0.1 µg/mL (≈ 0.185 µM).
As to `Cc1nc(C)c2ncc(C(=O)NC(C(=O)NC3C(=O)N4C3SC(C)(C)C4C(=O)O)c3cccc(N)c3)c(O)c2n1` (stereo not drawn) [Example 35], the MIC in assay [1] came to 0.78 µg/mL (≈ 1.38 µM); in assay [2], 6.25 µg/mL (≈ 11 µM); in assay [3], 1.56 µg/mL (≈ 2.76 µM); in assay [4] it was 1.56 µg/mL (≈ 2.76 µM); in assay [5] it was 1.56 µg/mL (≈ 2.76 µM); in assay [6], 0.025 µg/mL (≈ 0.0442 µM).
Regarding `CC1(C)SC2C(NC(=O)C(NC(=O)c3cnc4cc5c(cc4c3S)OCO5)c3cccc(N)c3)C(=O)N2C1C(=O)O` (stereo not drawn) [Example 36], the MIC in assay [1] was 6.25 µg/mL (≈ 10.5 µM); in assay [2], 12.5 µg/mL (≈ 21 µM); in assay [3] it was 3.13 µg/mL (≈ 5.25 µM); in assay [4], 0.78 µg/mL (≈ 1.31 µM); in assay [5], 6.25 µg/mL (≈ 10.5 µM); in assay [6], 0.39 µg/mL (≈ 0.655 µM).
With `CC1(C)SC2C(NC(=O)C(NC(=O)c3cnc4cccnc4c3S)c3cccc(N)c3)C(=O)N2C1C(=O)O` (stereo not drawn) [Example 37], the MIC was found to be 1.56 µg/mL (≈ 2.82 µM) in assay [1]; 12.5 µg/mL (≈ 22.6 µM) in assay [2]; 0.78 µg/mL (≈ 1.41 µM) in assay [3]; 1.56 µg/mL (≈ 2.82 µM) in assay [4]; 1.56 µg/mL (≈ 2.82 µM) in assay [5]; 0.05 µg/mL (≈ 0.0905 µM) in assay [6].
In the case of `COc1ccc(C(NC(=O)c2cnc3ccccc3c2S)C(=O)NC2C(=O)N3C2SC(C)(C)C3C(=O)O)cc1` (stereo not drawn) [Example 38], the MIC in assay [1] came to 6.25 µg/mL (≈ 11 µM); in assay [2], 12.5 µg/mL (≈ 22.1 µM); in assay [3], 3.13 µg/mL (≈ 5.52 µM); in assay [4], 0.78 µg/mL (≈ 1.38 µM); in assay [5], 6.25 µg/mL (≈ 11 µM); in assay [6] it was 0.39 µg/mL (≈ 0.688 µM).
Take `COc1cnc2c(O)c(C(=O)NC(C(=O)NC3C(=O)N4C3SC(C)(C)C4C(=O)O)c3cccc(N)c3)cnc2n1` (stereo not drawn) [Example 39]: the MIC in assay [1] came out at 0.78 µg/mL (≈ 1.37 µM); in assay [2], 6.25 µg/mL (≈ 11 µM); in assay [3], 0.78 µg/mL (≈ 1.37 µM); in assay [4], 0.78 µg/mL (≈ 1.37 µM); in assay [5], 0.78 µg/mL (≈ 1.37 µM); in assay [6], 0.025 µg/mL (≈ 0.044 µM).
Regarding `CC1(C)SC2C(NC(=O)C(NC(=O)c3cnc4scnc4c3O)c3cccc(N)c3)C(=O)N2C1C(=O)O` (stereo not drawn) [Example 40], the MIC in assay [1] was 1.56 µg/mL (≈ 2.88 µM); in assay [2] it was 6.25 µg/mL (≈ 11.5 µM); in assay [3], 1.56 µg/mL (≈ 2.88 µM); in assay [4], 1.56 µg/mL (≈ 2.88 µM); in assay [5] it was 1.56 µg/mL (≈ 2.88 µM); in assay [6], 0.025 µg/mL (≈ 0.0461 µM).
